The results in this text go back to patent US20120178625A1, “METHOD FOR REDUCING PISTILLATE FLOWER ABORTION IN PLANTS” (BASF SE, priority 2009, published 2012).

In this test the test system is walnut (Juglans regia cv. Serr). Put plainly: Control of PFA (pistillate flower abortion) field trial in a walnut orchard, Graneros, Chile (2008/2009). Type of test: in vivo. The settings on record: water 1500 l/ha. From the text:
In the terms of the present invention, “reducing pistillate flower abortion in plants” refers to a reduction in the level of PFA. This reduction can be measured by determining a) the fruit set (%), b) the number of growing fruits (%) and/or c) the remaining fruits at harvest (%) (fruit yield). The higher the percentage of fruit set, growing fruits and/or remaining fruits at harvest, the lower the respective pistillate flower abortion. The trial was run in a walnut orchard (Juglans regia cv. Serr) located in Graneros, Chile in the year 2008. Trial design was completely randomized with 3 replicates per treatment. Each replicate had identified branches completing 100 female flowers. Remaining fruit were counted after fruit set and at harvest time. […] [table] […] As a consequence PFA was quite high, influencing adversely yields in orchard where no ethylene control was done.

Where [1] appears, read: Treatment No. 2: 0.5 l/ha, 2 applications (10% and 30% of pistillates flowering).
Setting [2] is: Treatment No. 5: 0.7 l/ha + 0.015% Break-Thru, 3 applications (10%, 30% and 50% of pistillates flowering).

Turning to `COC(=O)N(OC)c1ccccc1COc1ccn(-c2ccc(Cl)cc2)n1` [Pyraclostrobin, pyraclostrobin], under setting [1], the “Fruit set (%) (Oct. 23, 2008)” value is listed as 54.0%; the “Increase (%) compared to UTC, fruit set” value is “+108%”; the “Increase (%) compared to UTC, remaining fruits at harvest” value is on record as “+106%”; the “Increase (%) compared to UTC, small growing fruits” value was “+104%”. Under setting [1], the “Remaining fruits at harvest (%) (Mar. 03, 2009)” value stood at 46.0% and the “Small growing fruits (%) (Nov. 10, 2008)” value worked out at 46.3%. Besides, under setting [2], the “Increase (%) compared to UTC, fruit set” value is given as “+165%”; the “Increase (%) compared to UTC, remaining fruits at harvest” value is listed as “+200%”; the “Increase (%) compared to UTC, small growing fruits” value is recorded as “+201%”.
